Data reported in ChEMBL document CHEMBL3046025, “Fungitoxic Properties of N-Phenylformamidoximes in Control of Benzimidazole-Resistant Isolates of Fungi” (1992).
Activity calls are given as the source filed them.

Assays:
Botrytis cinerea [1] = assay: Antifungal activity against Benzimidalzole-resistant Botryotinia fuckeliana isolate Bc-44 infected kidney bean leaves at 12.5 ppm treated as foliar application followed by incubation for 7 days in green house condition; type: functional
Botrytis cinerea [2] = assay: Antifungal activity against Benzimidalzole-resistant Botryotinia fuckeliana isolate Bc-44 infected kidney bean leaves at 50 ppm treated as foliar application followed by incubation for 7 days in green house condition; type: functional
Cercospora beticola [3] = assay: Antifungal activity against Benzimidalzole-resistant Cercospora beticola isolate Cb-19 infected in sugar beet seedlings at 3.1 ppm treated as foliar application 7 days prior to inoculation; type: functional
Cercospora beticola [4] = assay: Antifungal activity against Benzimidalzole-resistant Cercospora beticola isolate Cb-19 infected in sugar beet seedlings at 50 ppm treated as foliar application 7 days prior to inoculation; type: functional
Cercospora beticola [5] = assay: Antifungal activity against Benzimidalzole-resistant Cercospora beticola isolate Cb-19 infected in sugar beet seedlings at 200 ppm treated as foliar application 7 days prior to inoculation; type: functional
Cercospora beticola [6] = assay: Antifungal activity against Benzimidalzole-resistant Cercospora beticola isolate Cb-19 infected in sugar beet seedlings at 12.5 ppm 24 hr-post inoculation; type: functional
Cercospora beticola [7] = assay: Antifungal activity against Benzimidalzole-resistant Cercospora beticola isolate Cb-19 infected in sugar beet seedlings at 50 ppm 24 hr-post inoculation; type: functional
Cercospora beticola [8] = assay: Antifungal activity against Benzimidalzole-resistant Cercospora beticola isolate Cb-19 infected in sugar beet seedlings at 200 ppm 24 hr-post inoculation; type: functional
Botrytis cinerea [9] = assay: Antifungal activity against Benzimidalzole-resistant Botryotinia fuckeliana isolate Bc-44 infected kidney bean leaves at 200 ppm applied as soil drench 3 days prior to inoculation; type: functional
Botrytis cinerea [10] = assay: Antifungal activity against Benzimidalzole-resistant Botryotinia fuckeliana isolate Bc-44 infected kidney bean leaves at 3.1 ppm treated as foliar application followed by incubation for 7 days in green house condition; type: functional
Botrytis cinerea [11] = assay: Ratio of EC50 for Benzimidalzole-resistant Botryotinia fuckeliana isolate Bc-40 to EC50 for Benzimidalzole-resistant Botryotinia fuckeliana isolate Bc-44; type: functional
Botrytis cinerea [12] = assay: Ratio of EC50 for Benzimidalzole-resistant Botryotinia fuckeliana isolate Bc-20 to EC50 for Benzimidalzole-resistant Botryotinia fuckeliana isolate Bc-44; type: functional
Botrytis cinerea [13] = assay: Ratio of EC50 for Benzimidalzole-resistant Botryotinia fuckeliana isolate Bc-20 to EC50 for Benzimidalzole-resistant Botryotinia fuckeliana isolate Bc-31; type: functional
Botrytis cinerea [14] = assay: Ratio of EC50 for Benzimidalzole-sensitive Botryotinia fuckeliana isolate Bc-9 to EC50 for Benzimidalzole-resistant Botryotinia fuckeliana isolate Bc-44; type: functional
Botrytis cinerea [15] = assay: Antifungal activity against Benzimidalzole-resistant Botryotinia fuckeliana isolate Bc-44 infected compound-treated kidney bean leaves at 12.5 ppm after 4 days; type: functional
Botrytis cinerea [16] = assay: Antifungal activity against Benzimidalzole-resistant Botryotinia fuckeliana isolate Bc-44 infected compound-treated kidney bean leaves at 50 ppm after 4 days; type: functional
Botrytis cinerea [17] = assay: Antifungal activity against Benzimidalzole-resistant Botryotinia fuckeliana isolate Bc-31 at 0.001 to 1000 ppm after 3 days by agar dilution method; type: functional, organism-based
Cercospora beticola [18] = assay: Ratio of EC50 for […] to EC50 for Benzimidalzole-resistant Cercospora beticola isolate 49-4; type: functional
Cercospora beticola [19] = assay: Ratio of EC50 for Benzimidalzole-resistant Cercospora beticola isolate 20-2 to EC50 for Benzimidalzole-resistant Cercospora beticola isolate 1-3; type: functional
Cercospora beticola [20] = assay: Ratio of EC50 for Benzimidalzole-resistant Cercospora beticola isolate 18-11 to EC50 for Benzimidalzole-resistant Cercospora beticola isolate 1-3; type: functional
Cercospora beticola [21] = assay: Ratio of EC50 for Benzimidalzole-resistant Cercospora beticola isolate 18-11 to EC50 for Benzimidalzole-resistant Cercospora beticola isole Cb-19; type: functional
Cercospora beticola [22] = assay: Ratio of EC50 for Benzimidalzole-resistant Cercospora beticola isolate 6-13 to EC50 for Benzimidalzole-resistant Cercospora beticola isolate 1-3; type: functional
Cercospora beticola [23] = assay: Ratio of EC50 for Benzimidalzole-resistant Cercospora beticola isolate 6-13 to EC50 for Benzimidalzole-resistant Cercospora beticola isole 28-8; type: functional
Cercospora beticola [24] = assay: Antifungal activity against Benzimidalzole-resistant Cercospora beticola isolate 18-11 at 0.001 to 1000 ppm after 14 days by agar dilution method; type: functional, organism-based
Cercospora beticola [25] = assay: Antifungal activity against Benzimidalzole-resistant Cercospora beticola isolate 6-13 at 0.001 to 1000 ppm after 14 days by agar dilution method; type: functional, organism-based
Cercospora beticola [26] = assay: Antifungal activity against Benzimidalzole-sensitive Cercospora beticola isolate 18-1 at 0.001 to 1000 ppm after 14 days by agar dilution method; type: functional, organism-based
Cercospora beticola [27] = assay: Antifungal activity against Benzimidalzole-resistant Cercospora beticola isolate Cb-19 at 0.001 to 1000 ppm after 14 days by agar dilution method; type: functional, organism-based
Cercospora beticola [28] = assay: Antifungal activity against Benzimidalzole-resistant Cercospora beticola isolate 49-4 at 0.001 to 1000 ppm after 14 days by agar dilution method; type: functional, organism-based
Cercospora beticola [29] = assay: Antifungal activity against Benzimidalzole-resistant Cercospora beticola isolate 18-2 at 0.001 to 1000 ppm after 14 days by agar dilution method; type: functional, organism-based
Cercospora beticola [30] = assay: Antifungal activity against Benzimidalzole-sensitive Cercospora beticola isolate 18-1 infected in compound-treated sugar beet seedlings at 200 ppm after 12 days; type: functional
Cercospora beticola [31] = assay: Antifungal activity against Benzimidalzole-resistant Cercospora beticola isolate 1-3 at 0.001 to 1000 ppm after 14 days by agar dilution method; type: functional, organism-based
Cercospora beticola [32] = assay: Ratio of EC50 for Benzimidalzole-sensitive Cercospora beticola isolate 24-3 to EC50 for Benzimidalzole-resistant Cercospora beticola isolate 18-2; type: functional
Cercospora beticola [33] = assay: Ratio of EC50 for Benzimidalzole-sensitive Cercospora beticola isolate 24-3 to EC50 for Benzimidalzole-resistant Cercospora beticola isole 28-8; type: functional
Cercospora beticola [34] = assay: Ratio of EC50 for Benzimidalzole-sensitive Cercospora beticola isolate 22-5 to EC50 for Benzimidalzole-resistant Cercospora beticola isolate 49-4; type: functional
Cercospora beticola [35] = assay: Ratio of EC50 for Benzimidalzole-sensitive Cercospora beticola isolate 22-5 to EC50 for Benzimidalzole-resistant Cercospora beticola isolate 18-2; type: functional
Cercospora beticola [36] = assay: Ratio of EC50 for Benzimidalzole-sensitive Cercospora beticola isolate 22-5 to EC50 for Benzimidalzole-resistant Cercospora beticola isolate 1-3; type: functional
Cercospora beticola [37] = assay: Ratio of EC50 for Benzimidalzole-sensitive Cercospora beticola isolate 18-1 to EC50 for Benzimidalzole-resistant Cercospora beticola isolate 18-2; type: functional
Cercospora beticola [38] = assay: Ratio of EC50 for Benzimidalzole-sensitive Cercospora beticola isolate 18-1 to EC50 for Benzimidalzole-resistant Cercospora beticola isolate 1-3; type: functional
Cercospora beticola [39] = assay: Ratio of EC50 for Benzimidalzole-sensitive Cercospora beticola isolate 18-1 to EC50 for Benzimidalzole-resistant Cercospora beticola isole 28-8; type: functional
Botrytis cinerea [40] = assay: Antifungal activity against Benzimidalzole-resistant Botryotinia fuckeliana isolate Bc-44 infected kidney bean leaves at 3.1 ppm 24 hr post-infection measured after 3 days; type: functional
Botrytis cinerea [41] = assay: Antifungal activity against Benzimidalzole-resistant Botryotinia fuckeliana isolate Bc-44 infected kidney bean leaves at 50 ppm 24 hr post-infection measured after 3 days; type: functional
Cercospora beticola [42] = assay: Antifungal activity against Benzimidalzole-resistant Cercospora beticola isolate 18-2 infected in compound-treated sugar beet seedlings at 50 ppm after 12 days; type: functional
Botrytis cinerea [43] = assay: Antifungal activity against Benzimidalzole-resistant Botryotinia fuckeliana isolate Bc-44 infected compound-treated kidney bean leaves at 3.1 ppm after 4 days; type: functional

C#CCOc1c(Cl)cc(N/C=N/OC)cc1Cl
53%: Activity (Botrytis cinerea [1])
0%: Activity (Cercospora beticola [30])
inactive: Activity (Cercospora beticola [24]) | Activity (Cercospora beticola [25]) | Activity (Cercospora beticola [26])
95%: Activity (Botrytis cinerea [43])
40%: Activity (Cercospora beticola [3])
active: Activity (Botrytis cinerea [17]) | Activity (Cercospora beticola [27]) | Activity (Cercospora beticola [28]) | Activity (Cercospora beticola [29]) | Activity (Cercospora beticola [31])
99%: Activity (Cercospora beticola [4])
17%: Activity (Botrytis cinerea [10])
> 1000: Ratio EC50 (Botrytis cinerea [11]) | Ratio EC50 (Botrytis cinerea [12]) | Ratio EC50 (Botrytis cinerea [13]) | Ratio EC50 (Botrytis cinerea [14]) | Ratio EC50 (Cercospora beticola [18]) | Ratio EC50 (Cercospora beticola [19]) | Ratio EC50 (Cercospora beticola [20]) | Ratio EC50 (Cercospora beticola [21]) | Ratio EC50 (Cercospora beticola [22]) | Ratio EC50 (Cercospora beticola [23]) | Ratio EC50 (Cercospora beticola [32]) | Ratio EC50 (Cercospora beticola [33]) | Ratio EC50 (Cercospora beticola [34]) | Ratio EC50 (Cercospora beticola [35]) | Ratio EC50 (Cercospora beticola [36]) | Ratio EC50 (Cercospora beticola [37]) | Ratio EC50 (Cercospora beticola [38]) | Ratio EC50 (Cercospora beticola [39])
7%: Activity (Botrytis cinerea [9])
73%: Activity (Botrytis cinerea [40])
96%: Activity (Cercospora beticola [6])
98%: Activity (Cercospora beticola [7])
100%: Activity (Botrytis cinerea [2]) | Activity (Cercospora beticola [5]) | Activity (Cercospora beticola [8]) | Activity (Botrytis cinerea [15]) | Activity (Botrytis cinerea [16]) | Activity (Botrytis cinerea [41]) | Activity (Cercospora beticola [42])

C#CCOc1cc(N/C=N/OC)cc(Cl)c1OCC#C
0%: Activity (Cercospora beticola [30])
active: Activity (Botrytis cinerea [17]) | Activity (Cercospora beticola [27]) | Activity (Cercospora beticola [28]) | Activity (Cercospora beticola [29]) | Activity (Cercospora beticola [31])
100%: Activity (Cercospora beticola [4]) | Activity (Cercospora beticola [5]) | Activity (Cercospora beticola [7]) | Activity (Cercospora beticola [8]) | Activity (Botrytis cinerea [15]) | Activity (Botrytis cinerea [16]) | Activity (Botrytis cinerea [41]) | Activity (Cercospora beticola [42]) | Activity (Botrytis cinerea [43])
63%: Activity (Botrytis cinerea [1])
77%: Activity (Botrytis cinerea [9])
inactive: Activity (Cercospora beticola [24]) | Activity (Cercospora beticola [25]) | Activity (Cercospora beticola [26])
> 1000: Ratio EC50 (Botrytis cinerea [11]) | Ratio EC50 (Botrytis cinerea [12]) | Ratio EC50 (Botrytis cinerea [13]) | Ratio EC50 (Botrytis cinerea [14]) | Ratio EC50 (Cercospora beticola [18]) | Ratio EC50 (Cercospora beticola [19]) | Ratio EC50 (Cercospora beticola [20]) | Ratio EC50 (Cercospora beticola [21]) | Ratio EC50 (Cercospora beticola [22]) | Ratio EC50 (Cercospora beticola [23]) | Ratio EC50 (Cercospora beticola [32]) | Ratio EC50 (Cercospora beticola [33]) | Ratio EC50 (Cercospora beticola [34]) | Ratio EC50 (Cercospora beticola [35]) | Ratio EC50 (Cercospora beticola [36]) | Ratio EC50 (Cercospora beticola [37]) | Ratio EC50 (Cercospora beticola [38]) | Ratio EC50 (Cercospora beticola [39])
91%: Activity (Cercospora beticola [6]) | Activity (Botrytis cinerea [40])
31%: Activity (Botrytis cinerea [10])
58%: Activity (Cercospora beticola [3])
90%: Activity (Botrytis cinerea [2])
